{
  "source": "patent US10947229B2",
  "about": "“Dimethyl amino azetidine amides as JAK inhibitors” (THERAVANCE BIOPHARMA R&D IP, LLC, priority 2018, dated 2021)",
  "key": {"JAK2": {"target": "JAK2 (Homo sapiens (Human), UniProt O60674)", "sequence (O60674 whole entry)": "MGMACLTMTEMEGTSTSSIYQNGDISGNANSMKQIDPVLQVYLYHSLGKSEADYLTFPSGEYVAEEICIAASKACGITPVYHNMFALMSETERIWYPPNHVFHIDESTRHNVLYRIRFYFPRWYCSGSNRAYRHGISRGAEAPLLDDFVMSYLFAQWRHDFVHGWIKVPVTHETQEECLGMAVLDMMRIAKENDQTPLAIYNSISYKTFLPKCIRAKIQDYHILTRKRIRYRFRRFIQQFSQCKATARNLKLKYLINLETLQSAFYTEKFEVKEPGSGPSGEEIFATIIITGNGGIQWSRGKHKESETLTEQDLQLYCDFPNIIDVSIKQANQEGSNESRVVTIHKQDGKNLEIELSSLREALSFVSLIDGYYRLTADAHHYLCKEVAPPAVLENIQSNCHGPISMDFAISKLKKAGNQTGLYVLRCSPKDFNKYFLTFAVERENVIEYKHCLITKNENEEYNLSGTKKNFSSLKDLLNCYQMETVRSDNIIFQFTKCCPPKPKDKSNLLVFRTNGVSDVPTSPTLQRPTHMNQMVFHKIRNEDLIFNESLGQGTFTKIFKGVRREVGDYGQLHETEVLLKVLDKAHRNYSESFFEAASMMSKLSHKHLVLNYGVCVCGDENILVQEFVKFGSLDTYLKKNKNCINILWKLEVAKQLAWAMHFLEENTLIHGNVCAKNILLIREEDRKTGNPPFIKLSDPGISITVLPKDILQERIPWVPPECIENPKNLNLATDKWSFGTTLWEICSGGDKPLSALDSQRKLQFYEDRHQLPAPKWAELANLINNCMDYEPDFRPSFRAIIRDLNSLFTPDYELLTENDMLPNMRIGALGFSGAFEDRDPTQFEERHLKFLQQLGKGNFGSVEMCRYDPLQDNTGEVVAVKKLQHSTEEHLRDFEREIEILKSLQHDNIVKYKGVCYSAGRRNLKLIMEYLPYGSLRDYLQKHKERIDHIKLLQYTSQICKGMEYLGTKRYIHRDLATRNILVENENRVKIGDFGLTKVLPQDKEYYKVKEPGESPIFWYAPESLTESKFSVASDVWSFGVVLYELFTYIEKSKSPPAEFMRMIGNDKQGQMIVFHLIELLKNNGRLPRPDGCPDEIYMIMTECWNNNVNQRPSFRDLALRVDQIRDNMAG", "assay": "Biochemical JAK kinase assay (LanthaScreen), JAK2", "settings": "read-out: JAK2 pKi (converted)", "procedure": "Recombinant GST-tagged JAK enzymes and a GFP-tagged STAT1 peptide substrate were obtained from Life Technologies. Serially diluted compounds were pre-incubated with each of the four JAK enzymes and the substrate in white 384-well microplates (Corning) at ambient temperature for 1 h. ATP was subsequently added to initiate the kinase reactions in 10 μL total volume, with 1% DMSO. […] Kinase reactions were allowed to proceed for 1 hour at ambient temperature before a 10 μL preparation of EDTA (10 mM final concentration) and Tb-anti-pSTAT1 ([…]) antibody (Life Technologies, 2 nM final concentration) in TR-FRET dilution buffer (Life Technologies) was added. The plates were allowed to incubate at ambient temperature for 1 h before being read on the EnVision reader (Perkin Elmer). Emission ratio signals (520 nm/495 nm) were recorded and utilized to calculate the percent inhibition values based on DMSO and background controls. For dose-response analysis, percent inhibition data were plotted vs. compound concentrations, and IC50 values were determined from a 4-parameter robust fit model with the Prism software (GraphPad Software). Results were expressed as pIC50 (negative logarithm of IC50) and subsequently converted to pKi (negative logarithm of dissociation constant, Ki) using the Cheng-Prusoff equation. Test compounds having a lower Ki value or higher pKi value in the four JAK assays show greater inhibition of JAK activity."}, "[1]": {"test_system": "IFNγ stimulated STAT1 phosphorylation in CD14+ monocytes", "assay": "Cellular JAK potency assay: inhibition of IFNγ-induced pSTAT1", "assay_type": "cell-based", "settings": "Monocyte; CD14+ monocytes from human whole blood; read-out: pIC50, inhibition of IFNγ-induced pSTAT1 (converted)", "procedure": "The potency of test compounds for inhibition of interferon gamma (IFNγ) stimulated STAT1 phosphorylation was measured in CD14-positive (CD14+) monocytes derived from human whole blood (Stanford Blood Center) using flow cytometry. Because IFNγ signals through JAK, this assay provides a measure of JAK cellular potency. Monocytes were identified using a fluorescein isothiocyanate (FITC) conjugated anti-CD14 antibody (Clone RM052, Beckman Coulter), and an Alexa Fluor 647 conjugated anti-pSTAT1 antibody ([…], Clone 4a, BD Biosciences) was used to detect STAT1 phosphorylation. Human peripheral blood mononuclear cells (PBMC) were isolated from human whole blood of healthy donors using a ficoll gradient. […] Cells were washed twice with FACS buffer, and then re-suspended in 1:10 anti-pSTAT1 Alexa Fluor 647:FACS buffer (100 μL) for 30 min at RT in the dark, washed twice in FACS buffer, and analyzed using a MACSQuant flow cytometer (Miltenyi). To determine the inhibitory potency of the test compound, the median fluorescent intensity (MFI) of pSTAT1 was measured in CD14+ monocytes. IC50 values were determined from analysis of the inhibition curves of MFI vs compound concentration. Data are expressed as pIC50 (negative decadic logarithm IC50) values."}, "[2]": {"test_system": "GM-CSF stimulated STAT5 phosphorylation in CD14+ monocytes", "assay": "Cellular JAK potency assay: inhibition of GM-CSF-induced pSTAT5", "assay_type": "cell-based", "settings": "Monocyte; CD14+ monocytes from human whole blood; read-out: pIC50, inhibition of GM-CSF-induced pSTAT5 (converted)", "procedure": "The potency of test compounds for inhibition of granulocyte-macropage colony-stimulating factor (GM-CSF) stimulated STAT5 phosphorylation was measured in CD14-positive (CD14+) monocytes derived from human whole blood (Stanford Blood Center) using flow cytometry. Because GM-CSF signals through JAK, this assay provides a measure of JAK cellular potency. Monocytes were identified using a fluorescein isothiocyanate (FITC) conjugated anti-CD14 antibody (Clone RM052, Beckman Coulter), and an Alexa Fluor 647 conjugated anti-pSTAT5 antibody (pY694, BD Biosciences) was used to detect STAT5 phosphorylation. Human peripheral blood mononuclear cells (PBMC) were isolated from human whole blood of healthy donors using a ficoll gradient. […] Cells were washed twice with FACS buffer, and then re-suspended in 1:10 […] Alexa Fluor 647:FACS buffer (100 μL) for 30 min at RT in the dark, washed twice in FACS buffer, and analyzed using a MACSQuant flow cytometer (Miltenyi). To determine the inhibitory potency of the test compound, the median fluorescent intensity (MFI) of pSTAT5 was measured in CD14+ monocytes. IC50 values were determined from analysis of the inhibition curves of MFI vs compound concentration. Data are expressed as pIC50 (negative decadic logarithm IC50) values."}},
  "data": [
    {"smiles": "CCc1cc(O)ccc1-c1ccc2c(-c3nc4c([nH]3)CN(C(C)C)[C@H](C(=O)N3CC(N(C)C)C3)C4)n[nH]c2c1", "note": "[Compound 1, (S)-(3-(dimethylamino)azetidin-1-yl)(2-(6-(2-ethyl-4-hydroxyphenyl)-1H-indazol-3-yl)-5-isopropyl-4,5,6,7-tetrahydro-3H-imidazo[4,5-c]pyridin-6-yl)methanone]", "values": [
      {"measurement": "Ki", "setting": "JAK2", "value": 0.0316, "unit": "nM"},
      {"measurement": "IC50", "setting": "[1]", "value": 31.6, "unit": "nM"},
      {"measurement": "IC50", "setting": "[2]", "value": 126, "unit": "nM"}
    ]}
  ]
}
